Test results published in ChEMBL document CHEMBL4304773, “Nitroimidazole-containing compounds and their antibacterial and antitubercular activities” (2019).

How the values were obtained:
Helicobacter pylori [1] = test: Antibacterial activity against Helicobacter pylori clinical isolate assessed as zone of inhibition at 8 ug/disc; assay type: functional; details: read-out: IZ
Helicobacter pylori [2] = test: Antibacterial activity against drug-sensitive Helicobacter pylori assessed as zone of inhibition at 8 ug/disc; assay type: functional; details: read-out: IZ
Staphylococcus aureus [3] = test: Antibacterial activity against Staphylococcus aureus ATCC 6538 after 18 hrs by two fold serial dilution; assay type: functional; details: ATCC 6538, 18 h
Bacillus subtilis [4] = test: Antibacterial activity against Bacillus subtilis PTCC 1023 after 18 hrs by two fold serial dilution; assay type: functional; details: PTCC 1023, 18 h
Klebsiella pneumoniae [5] = test: Antibacterial activity against Klebsiella pneumoniae ATCC 10031 after 18 hrs by two fold serial dilution; assay type: functional; details: ATCC 10031, 18 h
Escherichia coli [6] = test: Antibacterial activity against Escherichia coli ATCC 8739 after 18 hrs by two fold serial dilution; assay type: functional; details: ATCC 8739, 18 h
[7] = system: Staphylococcus epidermidis; test: Antibacterial activity against Staphylococcus epidermidis ATCC 12228 after 18 hrs by two fold serial dilution; assay type: functional; details: ATCC 12228, 18 h
Enterococcus faecalis [8] = test: Antibacterial activity against Enterococcus faecalis; assay type: functional
[9] = system: Staphylococcus epidermidis; test: Antibacterial activity against Staphylococcus epidermidis; assay type: functional
Enterococcus faecalis [10] = test: Potency index, ratio of chloramphenicol MIC to test compound MIC for Enterococcus faecalis; assay type: functional
[11] = system: Staphylococcus epidermidis; test: Potency index, ratio of chloramphenicol MIC to test compound MIC for Staphylococcus epidermidis; assay type: functional
Staphylococcus aureus [12] = test: Antibacterial activity against Staphylococcus aureus; assay type: functional
Streptococcus pyogenes = test: Antibacterial activity against Streptococcus pyogenes; assay type: functional
Escherichia coli [13] = test: Antibacterial activity against Escherichia coli; assay type: functional
Pseudomonas aeruginosa [14] = test: Antibacterial activity against Pseudomonas aeruginosa; assay type: functional
Candida albicans = test: Antifungal activity against Candida albicans; assay type: functional
Proteus vulgaris = test: Antibacterial activity against Proteus vulgaris; assay type: functional
Klebsiella aerogenes [15] = test: Antibacterial activity against Klebsiella aerogenes; assay type: functional
Salmonella typhimurium = test: Antibacterial activity against Salmonella typhimurium; assay type: functional, Salmonella enterica subsp. enterica serovar Typhimurium; details: Salmonella enterica
Bacillus subtilis [16] = test: Antibacterial activity against Bacillus subtilis; assay type: functional
Proteus = test: Antibacterial activity against Proteus; assay type: functional
Enterococcus faecalis [17] = test: Antibacterial activity against Enterococcus faecalis after 24 hrs; assay type: functional
Staphylococcus aureus [18] = test: Antibacterial activity against Staphylococcus aureus ATCC 25923 after 24 hrs; assay type: functional; details: ATCC 25923, 24 h
Staphylococcus aureus [19] = test: Antibacterial activity against Staphylococcus aureus ATCC 29213 after 24 hrs; assay type: functional; details: ATCC 29213, 24 h
Staphylococcus aureus [20] = test: Antibacterial activity against methicillin-resistant Staphylococcus aureus after 24 hrs; assay type: functional
Pseudomonas aeruginosa [21] = test: Antibacterial activity against Pseudomonas aeruginosa after 24 hrs; assay type: functional
Pseudomonas aeruginosa [22] = test: Antibacterial activity against Pseudomonas aeruginosa ATCC 27853 after 24 hrs; assay type: functional; details: ATCC 27853, 24 h
Escherichia coli [23] = test: Antibacterial activity against Escherichia coli ATCC 25922 after 24 hrs; assay type: functional; details: ATCC 25922, 24 h
Klebsiella pneumoniae [24] = test: Antibacterial activity against Klebsiella pneumoniae after 24 hrs; assay type: functional
Escherichia coli [25] = test: Antibacterial activity against drug-resistant Escherichia coli after 24 hrs; assay type: functional
Escherichia coli [26] = test: Potency index, ratio of norfloxacin MIC to test compound MIC for drug-resistant Escherichia coli; assay type: functional
Clostridioides difficile [27] = test: Antibacterial activity against Clostridium difficile R20291 assessed as zone of inhibition at 2.5 ug/disc after 24 hrs; assay type: functional; details: read-out: IZ
Clostridioides difficile [28] = test: Antibacterial activity against Clostridium difficile ATCC 43603 assessed as zone of inhibition at 2.5 ug/disc after 24 hrs; assay type: functional; details: ATCC 43603, 24 h, read-out: IZ
Clostridioides difficile [29] = test: Antibacterial activity against Clostridium difficile 630 assessed as zone of inhibition at 2.5 ug/disc after 24 hrs; assay type: functional; details: Clostridioides difficile, 630, 24 h; read-out: IZ
Klebsiella aerogenes [30] = test: Antibacterial activity against Enterobacter aerogenes PTCC 1221 after 18 hrs by two fold serial dilution; assay type: functional; details: PTCC 1221, 18 h
Staphylococcus aureus [31] = test: Antibacterial activity against Staphylococcus aureus ATCC 25923; assay type: functional
Staphylococcus aureus [32] = test: Antibacterial activity against Staphylococcus aureus ATCC 29213; assay type: functional
Staphylococcus aureus [33] = test: Antibacterial activity against methicillin-resistant Staphylococcus aureus N315; assay type: functional
Pseudomonas aeruginosa [34] = test: Antibacterial activity against Pseudomonas aeruginosa ATCC 27853; assay type: functional
Acinetobacter baumannii = test: Antibacterial activity against Acinetobacter baumannii; assay type: functional
Escherichia coli [35] = test: Antibacterial activity against Escherichia coli ATCC 25922; assay type: functional
Klebsiella pneumoniae [36] = test: Antibacterial activity against Klebsiella pneumoniae; assay type: functional

Cn1c([N+](=O)[O-])cnc1-c1nnc(S)s1
20.9 to 50 mm: zone of inhibition at 8 µg/disc (Helicobacter pylori [1]) | zone of inhibition at 8 µg/disc (Helicobacter pylori [2])

Cn1cnc([N+](=O)[O-])c1S(=O)(=O)c1nnc(-c2ncc([N+](=O)[O-])n2C)s1
2 to 64 µg/mL: MIC (Staphylococcus aureus [3]) | MIC (Bacillus subtilis [4]) | MIC (Klebsiella pneumoniae [5]) | MIC (Escherichia coli [6]) | MIC [7]

Cc1ncc([N+](=O)[O-])n1CCN1C(=O)S/C(=C\c2ccccc2)C1=O
2: Ratio [11]
62.5 µg/mL: MIC (Enterococcus faecalis [8]) | MIC [9]
8: Ratio (Enterococcus faecalis [10])

Cn1c([N+](=O)[O-])cnc1-c1nnc(Cl)s1
20.9 to 50 mm: zone of inhibition at 8 µg/disc (Helicobacter pylori [1]) | zone of inhibition at 8 µg/disc (Helicobacter pylori [2])

Cc1nc([N+](=O)[O-])cn1Cc1nn(CNc2ccc(Br)cc2)c(=S)o1
184 to 2890 µM: MIC (Staphylococcus aureus [12]) | MIC (Streptococcus pyogenes)

Cc1ncc([N+](=O)[O-])n1CCN1C(=O)S/C(=C\c2cccs2)C1=O
31.2 to 500 µg/mL: MIC (Staphylococcus aureus [12]) | MIC (Escherichia coli [13]) | MIC (Pseudomonas aeruginosa [14]) | MIC (Candida albicans) | MIC (Proteus vulgaris) | MIC (Klebsiella aerogenes [15]) | MIC (Enterococcus faecalis [8]) | MIC [9] | MIC (Salmonella typhimurium)

CC(=O)N(Cc1ccc(Cl)cc1Cl)c1ccc(S(=O)(=O)NCCCn2c([N+](=O)[O-])cnc2C)cc1
16 to 64 µg/mL: MIC (Staphylococcus aureus [12]) | MIC (Bacillus subtilis [16]) | MIC (Escherichia coli [13]) | MIC (Pseudomonas aeruginosa [14]) | MIC (Salmonella typhimurium) | MIC (Proteus)

Cc1ccc(/C=C2\SC(=O)N(CCn3c([N+](=O)[O-])cnc3C)C2=O)cc1
31.2 to 500 µg/mL: MIC (Staphylococcus aureus [12]) | MIC (Escherichia coli [13]) | MIC (Pseudomonas aeruginosa [14]) | MIC (Candida albicans) | MIC (Proteus vulgaris) | MIC (Klebsiella aerogenes [15]) | MIC (Enterococcus faecalis [8]) | MIC [9] | MIC (Salmonella typhimurium)

COc1cc(/C=C(\C#N)n2cc([N+](=O)[O-])nc2C)c2c(c1OCc1ccccc1F)CN1CCc3cc4c(cc3C1C2)OCO4 (stereo not drawn)
33: Ratio (Escherichia coli [26])
3 µM: MIC (Escherichia coli [25])
3 to 1020 µM: MIC (Enterococcus faecalis [17]) | MIC (Staphylococcus aureus [18]) | MIC (Staphylococcus aureus [19]) | MIC (Staphylococcus aureus [20]) | MIC (Pseudomonas aeruginosa [21]) | MIC (Pseudomonas aeruginosa [22]) | MIC (Escherichia coli [23]) | MIC (Klebsiella pneumoniae [24])

C/C=C/c1nc(CS(=O)(=O)c2ccccc2)c([N+](=O)[O-])n1C
13.5 to 24.5 mm: zone of inhibition at 2.5 µg/disc (Clostridioides difficile [27]) | zone of inhibition at 2.5 µg/disc (Clostridioides difficile [28]) | zone of inhibition at 2.5 µg/disc (Clostridioides difficile [29])

COc1ccc(-c2nnc(Sc3c([N+](=O)[O-])ncn3C)s2)cc1
> 64 µg/mL: MIC (Bacillus subtilis [4]) | MIC (Klebsiella pneumoniae [5]) | MIC (Escherichia coli [6]) | MIC (Klebsiella aerogenes [30])
4 to 32 µg/mL: MIC (Staphylococcus aureus [3])

Cn1cnc([N+](=O)[O-])c1Sc1nnc(-c2ncc([N+](=O)[O-])n2C)s1
4 to 32 µg/mL: MIC (Staphylococcus aureus [3])
> 64 µg/mL: MIC (Bacillus subtilis [4]) | MIC (Klebsiella pneumoniae [5]) | MIC (Escherichia coli [6]) | MIC (Klebsiella aerogenes [30])

CCCCCCCCCCN1CCN(c2ccc3c4c(cccc24)C(=O)N(CC(O)Cn2c([N+](=O)[O-])cnc2C)C3=O)CC1 (stereo not drawn)
13 µM: MIC (Klebsiella aerogenes [15])
13 to 210 µM: MIC (Escherichia coli [13]) | MIC (Pseudomonas aeruginosa [14]) | MIC (Enterococcus faecalis [8]) | MIC (Staphylococcus aureus [31]) | MIC (Staphylococcus aureus [32]) | MIC (Staphylococcus aureus [33]) | MIC (Pseudomonas aeruginosa [34]) | MIC (Acinetobacter baumannii) | MIC (Escherichia coli [35]) | MIC (Klebsiella pneumoniae [36])

CC(=O)Nc1nnc(Sc2c([N+](=O)[O-])ncn2C)s1
> 64 µg/mL: MIC (Bacillus subtilis [4]) | MIC (Klebsiella pneumoniae [5]) | MIC (Escherichia coli [6]) | MIC (Klebsiella aerogenes [30])
4 to 32 µg/mL: MIC (Staphylococcus aureus [3])

Cn1cnc([N+](=O)[O-])c1S(=O)(=O)c1nnc(-c2ccc([N+](=O)[O-])o2)s1
2 to 64 µg/mL: MIC (Staphylococcus aureus [3]) | MIC (Bacillus subtilis [4]) | MIC (Klebsiella pneumoniae [5]) | MIC (Escherichia coli [6]) | MIC [7]

CCN1CCN(Cn2nc(Cn3cc([N+](=O)[O-])nc3C)oc2=S)CC1
184 to 2890 µM: MIC (Staphylococcus aureus [12]) | MIC (Streptococcus pyogenes)

Cc1nc([N+](=O)[O-])cn1Cc1nn(CNc2ccc(-c3ccccc3)cc2)c(=S)o1
184 to 2890 µM: MIC (Staphylococcus aureus [12]) | MIC (Streptococcus pyogenes)

Cc1cc([N+](=O)[O-])ccc1NCn1nc(Cn2cc([N+](=O)[O-])nc2C)oc1=S
184 to 2890 µM: MIC (Staphylococcus aureus [12]) | MIC (Streptococcus pyogenes)

Cc1ncc([N+](=O)[O-])n1CCN1C(=O)S/C(=C\c2ccc(Cl)cc2)C1=O
31.2 to 500 µg/mL: MIC (Staphylococcus aureus [12]) | MIC (Escherichia coli [13]) | MIC (Pseudomonas aeruginosa [14]) | MIC (Candida albicans) | MIC (Proteus vulgaris) | MIC (Klebsiella aerogenes [15]) | MIC (Enterococcus faecalis [8]) | MIC [9] | MIC (Salmonella typhimurium)
